Results as given in US20020016346A1, “Method for enhancing outflow of aqueous humor in treatment of glaucoma” (The Regents University of California, a California …, priority 1994, published 2002).
Read-outs that look alike come from different tables or passages of the source.

How the values were obtained:
[1] = molecular target: T1, Na—K—Cl cotransport (Bos taurus, UniProt F1MS08); test: K influx (86Rb) in bovine TM cell monolayers; format: cell-based
T1 sequence (F1MS08 1-1204): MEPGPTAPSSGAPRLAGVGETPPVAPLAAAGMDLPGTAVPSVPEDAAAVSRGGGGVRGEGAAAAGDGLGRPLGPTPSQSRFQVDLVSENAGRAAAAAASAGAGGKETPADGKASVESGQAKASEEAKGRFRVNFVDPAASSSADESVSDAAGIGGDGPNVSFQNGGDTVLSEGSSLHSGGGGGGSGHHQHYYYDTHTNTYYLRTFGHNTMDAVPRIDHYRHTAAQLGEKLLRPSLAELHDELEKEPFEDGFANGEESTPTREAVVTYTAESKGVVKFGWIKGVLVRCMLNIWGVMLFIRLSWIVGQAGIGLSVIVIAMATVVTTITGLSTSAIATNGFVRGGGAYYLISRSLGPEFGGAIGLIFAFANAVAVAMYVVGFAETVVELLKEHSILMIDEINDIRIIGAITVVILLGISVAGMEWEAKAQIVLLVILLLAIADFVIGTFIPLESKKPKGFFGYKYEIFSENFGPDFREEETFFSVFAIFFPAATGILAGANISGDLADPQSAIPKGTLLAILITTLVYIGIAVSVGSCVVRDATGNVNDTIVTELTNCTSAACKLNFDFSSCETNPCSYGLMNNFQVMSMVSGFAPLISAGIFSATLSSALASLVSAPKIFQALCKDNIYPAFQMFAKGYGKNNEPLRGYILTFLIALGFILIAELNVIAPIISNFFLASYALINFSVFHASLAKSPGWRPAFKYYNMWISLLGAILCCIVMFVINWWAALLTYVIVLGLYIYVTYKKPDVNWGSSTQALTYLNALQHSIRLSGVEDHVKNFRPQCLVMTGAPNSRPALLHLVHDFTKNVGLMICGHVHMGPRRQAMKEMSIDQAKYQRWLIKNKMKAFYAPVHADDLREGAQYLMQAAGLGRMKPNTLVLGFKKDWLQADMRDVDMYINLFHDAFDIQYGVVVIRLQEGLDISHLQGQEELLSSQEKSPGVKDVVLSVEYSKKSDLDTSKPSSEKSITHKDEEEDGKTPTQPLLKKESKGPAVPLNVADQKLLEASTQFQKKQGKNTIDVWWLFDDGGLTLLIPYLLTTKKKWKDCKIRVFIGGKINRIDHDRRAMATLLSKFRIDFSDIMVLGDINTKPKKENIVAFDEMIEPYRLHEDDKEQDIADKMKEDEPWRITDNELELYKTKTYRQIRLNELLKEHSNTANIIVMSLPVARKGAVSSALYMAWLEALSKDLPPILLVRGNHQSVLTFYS
Protocol: Details of this method have been published previously (O'Donnell, M. E., supra, 1989). Briefly, bovine or human TM cell monolayers on 24 well plates were equilibrated for 10 minutes at 37° C. in a Hepes-buffered minimal essential medium (MEM) containing (in mM): 144 Na, 147 Cl, 5.8 K, 1.2 Ca, 4.2 HCO3, 0.4 H2PO4, […], 0.4 SO4, 5.6 glucose and 20 Hepes. […] The assay medium also contained ^86Rb (1 μCi/ml) (Dupont New England Nuclear, Boston, Mass.). The assay was terminated by rinsing the wells with ice-cold isotonic MgCl2, then extracting the contents with 0.2% sodium dodecyl sulfate (SDS), and determining the amount of radioactive contents by liquid scintillation. Osmolarities of all preincubation and assay media were verified by osmometry (Model 3W2, Advanced Instruments, Norwood, Mass.).
The effects of hormones, neurotransmitters and second messengers on Bumetanide-sensitive K influx of bovine trabecular meshwork cells were assessed using the procedures of Example 1. […] The control is the Hepes-buffered medium containing Na, K, Cl, CA and other ions as described in Example 1B. […] The data represent the mean values±SEM of quadruplicate determinations from two experiments.

[2] = system: Na+—K+—2Cl− cotransporter
Protocol: Thus, studies were conducted to determine the magnitude of net K uptake mediated by the TM cell Na^+—K^+—2Cl^− cotransporter. For determination of the net potassium uptake, the potassium contents of TM cells were evaluated by atomic absorption spectrophotometry, as described previously by O'Donnell, M. E. (supra, 1993). Briefly, cells were preincubated in 10 μM bumetanide for 5 minutes, and assayed as described above, with the exception that no ^86Rb was present during the assay. Cell ionic contents were extracted with 5% trichloroacetic acid following removal of extracellular potassium by washing the monolayers with ice-cold 0.1 M MgCl2.

[3] = system: bovine TM cells; test: TM cell volume by electronic cell sizing (Coulter Counter); format: cell-based
Protocol: By the second method, TM cells were trypsinized briefly in Ca-free medium, then rinsed with medium containing trypsin inhibitor and suspended in Hepes MEM. Mean cell volumes were then analyzed by electronic cell sizing on a Coulter Counter™ […] (Model ZM), with channelizer (C256), using at least 50,000 cells per data point and an orifice diameter of 140 μm. Aliquots of suspended cells were diluted into Hepes MEM containing the tonicity and/or agents to be evaluated. Mean cell volumes of each suspension aliquot were followed over time, starting at 1 minute after addition of cells to the assay media. Cell suspensions were maintained at 37° C. throughout the assay period. Absolute volumes (picoliters/cell) were calculated from distribution curves of cell diameter, using a standard curve generated by polystyrene latex beads of known diameter.
In order to determine whether the Na—K—Cl cotransporter of TM cells may play a role in restoration of intracellular volume following hypertonicity-induced cell shrinkage, we evaluated the effect of hypertonicity on TM cell volume and Na^+—K^+—2Cl^− cotransport activity. […] The intracellular volume of the cells then increased over a slower time course, with volume recovering to approximately 84% by 33 minutes as shown in FIG. 3A.

Structure (SMILES): CCCCNc1cc(C(=O)O)cc(S(N)(=O)=O)c1Oc1ccccc1 [bumetanide]
- K influx ([1]; 10 μM bumetanide, total K uptake without drug 49±1.47): 22.09±1.14 μmol K/gm protein/min
- BUMETANIDE-SENSITIVE K INFLUX ([1]; with Na/K pump inhibition (ouabain)): 20.1 μmol K/gm protein/min
- BUMETANIDE-SENSITIVE K INFLUX ([1]; without Na/K pump inhibition): 26.9 μmol K/gm protein/min
- bumetanide-sensitive net K uptake ([2]; Cl omitted from the incubation medium, n=8): −2.62±2.82 μmol K/gm protein/min
- bumetanide-sensitive net K uptake ([2]; Na omitted from the incubation medium, n=8): 1.71±2.49 μmol K/gm protein/min
- bumetanide-sensitive net K uptake ([2]; steady state, 10 μM bumetanide): 7.78=1.98 μmol K/gm protein/min
- intracellular volume ([3]; 30 minute exposure, bumetanide 10 μM, ethacrynic acid 1 mM, versus Hepes MEM control): significant reduction
- volume recovery after hypertonicity-induced cell shrinkage ([3]; hypertonic (400 mOsm) medium containing bumetanide): greatly attenuated
